Laboratory results: article PMC10761933, “Acquired and intrinsic resistance to vemurafenib in BRAF^V600E ‐driven melanoma brain metastases” (FEBS Open Bio, 2023)
Like-named read-outs stand apart in the source and are kept apart here.

Legend:
[1] = test system: intracranial A375 tumors; assay: Efficacy against intracranial A375 melanoma tumors (BLI, survival); assay type: in vivo, mice
Description: For subcutaneous xenograft models, 30 μL of cell suspension containing 3 × 10^6 A375 cells was injected into both flanks of FVB WT and Abcb1a/b;Abcg2 ^ −/− nude mice. For xenograft MBM models, stereotactic intracranial injections (A375 and Mel57) or intracarotid injections (K1735) of melanoma cells were performed as described previously. For intracranial injections, FVB nude mice were injected intracranially with 2 μL of A375 or Mel57 cell suspension containing 1 × 10^5 cells 2 mm lateral, 1 mm anterior, and 3 mm ventral from the bregma. For intracarotid injections, 1 × 10^5 cells in 100 μL HBSS were injected in the left common carotid artery of C3H/HeN mice. Tumor growth was measured by bioluminescence imaging (BLI) for intracranial tumors and by caliper for subcutaneous tumors. The volume of subcutaneous tumors was calculated in mm^3 using the modified ellipsoid formula (volume = 0.5 × length × width^2). Bioluminescence images were acquired following i.p. D‐luciferin (150 mg·kg^−1; Promega) using an IVIS 200 or IVIS Spectrum system with LIVING IMAGE software v4.5 (both PerkinElmer, Waltham, MA, USA). Animals were stratified into treatment groups to achieve a similar mean bioluminescence reading within each cohort. The bioluminescence intensity of each individual animal on the day of the start of treatment (Day 0) was arbitrarily set at 100%. All subsequent measurements were recorded relative to this first measurement and converted to their log values. Mean ± standard error (SE) values were calculated and plotted in graphs.
(§1) For the subcutaneous tumor model, therapy was initiated 2 weeks after implantation, when the tumor volume exceeded 40 mm^3. FVB WT and Abcb1a/b;Abcg2 ^ −/− nude mice (n = 8) received 25 and 10 mg·kg^−1 of vemurafenib daily, respectively. Control mice (n = 8) received vehicle. Tumor development was assessed by caliper twice a week. For the intracranial tumor model, treatment was started about 2 weeks after intracranial injection of tumor cells, when full‐blown tumors were present in all animals. WT and Abcb1a/b;Abcg2 ^ −/− nude mice received vehicle, 25 mg·kg^−1 vemurafenib, 10 mg·kg^−1 vemurafenib plus 100 mg·kg^−1 elacridar, or 10 mg·kg^−1 vemurafenib once daily for 10 consecutive days or in a 5 days on/2 days off/5 days on schedule, as indicated in the relevant figure panels. Tumor growth was monitored by BLI every 4 or 5 days. Mice were weighed daily weighed examined for abnormalities. The mice were humanely sacrificed based on BLI results or when weight loss exceeded 20% of the initial body weight.

[2] = Body weight during efficacy studies; assay type: in vivo, mice
Description: as §1

[3] = Oral vemurafenib plasma pharmacokinetics in tumor‐free WT and Abcb1a/b;Abcg2−/− FVB nude mice; assay type: in vivo; conditions: mean ± SD; for Cmax / Tmax / half-life: FVB nude, mouse, plasma, po; for half-life: read-out: t 1/2 (elimination half‐life) (converted)
Description: To establish vemurafenib plasma kinetics, tumor‐free FVB WT, and Abcb1a/b;Abcg2 ^ −/− nude mice received vemurafenib orally (p.o.) by gavage at indicated doses. Elacridar (100 mg·kg^−1) was administrated p.o. by gavage 4 h before vemurafenib. Blood was sampled from the tail vein at 15 min, 1, 2, 4, 8, and 24 h after the administration. The plasma was obtained by centrifugation (5 min, 2000 g, 4 °C). Vemurafenib was extracted from plasma by diethyl ether liquid–liquid extraction. Extracts were dried using a Savant SpeedVac Concentrator (Thermo Fisher Scientific, Waltham, MA, USA), reconstituted in MeCN : water (30 : 70), and subjected to liquid chromatography/tandem mass spectrometry (LC/MS–MS) analysis. Vemurafenib‐^13C6 was used as an internal standard.
The LC–MS/MS system consisted of an API 3000 mass spectrometer (Sciex, Framingham, MA, USA) coupled to an UltiMate 3000 LC System (Dionex, Sunnyvale, CA, USA). Samples were separated using a ZORBAX Extend‐C18 column (Agilent, Santa Clara, CA, USA), preceded by a Securityguard C18 precolumn (Phenomenex, Utrecht, the Netherlands). Elution was done using a mixture of mobile phase A (0.1% formic acid in water (v/v)) and mobile phase B (methanol) in a 5 min gradient from 20% to 95% B, followed by 95% B that was maintained for 3 min and then re‐equilibrated at 20% B. Multiple reaction monitoring parameters were 490.2/383.1 (vemurafenib) and 496.2/389.1 (vemurafenib‐^13C6). System control and data analysis were done using ANALYST ® 1.6.2 software (AB Sciex, Foster City, CA, USA).
Pharmacokinetic parameters were calculated with PKSOLVER [30]. All comparisons involving more than two groups were analyzed by one‐way ANOVA followed by Bonferroni post hoc tests. Differences in fractions of ABC transporter‐expressing cells between brain and skin lesions were compared using the Binomial test in which the skin fraction was considered as expected and the brain fraction was considered as observed. Correlations were determined using simple linear regression. Kaplan–Meier curves were drawn using GRAPHPAD PRISM v7 (GraphPad Software, La Jolla, CA, USA), and statistically significant survival differences were determined using the log‐rank test. Statistical significance was accepted in all tests when P < 0.05.

[4] = Abcb1a/b;Abcg2−/− mice, 10 mg·kg^−1 p.o.
[5] = Abcb1a/b;Abcg2−/− mice, 25 mg·kg^−1 p.o.
[6] = 10 mg/kg, Abcb1a/b;Abcg2−/− mice, 10 mg·kg^−1 p.o.
[7] = 10 mg/kg, WT mice, 10 mg·kg^−1 p.o. + elacridar 100 mg·kg^−1 p.o. 4 h before
[8] = 25 mg/kg, Abcb1a/b;Abcg2−/− mice, 25 mg·kg^−1 p.o.
[9] = 25 mg/kg, WT mice, 25 mg·kg^−1 p.o.
[10] = WT mice, 10 mg·kg^−1 p.o. + elacridar 100 mg·kg^−1 p.o. 4 h before

CCCS(=O)(=O)Nc1ccc(F)c(C(=O)c2c[nH]c3ncc(-c4ccc(Cl)cc4)cc23)c1F [vemurafenib]
survival ([1]; Abcb1a/b;Abcg2−/− mice, 10 mg·kg^−1 q.d. × 10d): not significantly extended
tumor growth of intracranial A375 tumors ([1]; Abcb1a/b;Abcg2−/− mice, 10 mg·kg^−1 q.d. × 10d, first 3 days of treatment, regrowth under therapy afterwards): induced tumor regression
tumor growth of intracranial A375 tumors ([1]; Abcb1a/b;Abcg2−/− mice, two cycles of 5 days of 25 mg·kg^−1 daily oral): induced regression and subsequent tumor stasis
survival ([1]; Abcb1a/b;Abcg2−/− mice, two cycles of 5 days of 25 mg·kg^−1 daily oral, vs vehicle): a survival difference was already established
antitumor efficacy against intracranial A375 tumors with pharmacological P‐gp/BCRP inhibition vs Abcb1a/b;Abcg2−/− mice at same dose ([1]; WT mice, 10 mg·kg^−1 vemurafenib + 100 mg·kg^−1 elacridar): less efficacious
tumor growth of intracranial A375 tumors ([1]; WT mice, 25 mg·kg^−1 q.d. × 10d): only reduced A375 growth speed
body weight ([2]; Abcb1a/b;Abcg2−/− mice with intracranial A375, two cycles of 5 days of 25 mg·kg^−1 daily oral): without affecting body weight
body weight ([2]; intracranial A375, any treatment regimen (WT 25, WT 10 + elacridar, Abcb1a/b;Abcg2−/− 10 mg·kg^−1)): could not observe any weight loss
body weight ([2]; subcutaneous A375, 25 mg·kg^−1 in WT and 10 mg·kg^−1 in Abcb1a/b;Abcg2−/− mice, 13 days): did not result in body weight loss
AUCplasma 0–4 h [3, 4]: 56 ± 7.2 µg·mL/h
AUCplasma 0–24 h [3, 4]: 230 ± 35 µg·mL/h
AUCplasma 0–∞ [3, 4]: 250 ± 49 µg·mL/h
CL/F (apparent clearance after oral administration) [3, 4]: 0.04 ± 0.006 L·kg/h
AUCplasma 0–4 h [3, 5]: 140 ± 16 µg·mL/h
AUCplasma 0–24 h [3, 5]: 530 ± 68 µg·mL/h
AUCplasma 0–∞ [3, 5]: 610 ± 84 µg·mL/h
CL/F (apparent clearance after oral administration) [3, 5]: 0.04 ± 0.006 L·kg/h
Cmax [3, 6]: 17000 ± 1700 ng/mL
Tmax [3, 6]: 2.8 ± 1.1 h
half-life [3, 6]: 6.7 ± 1.4 h
Tmax [3, 7]: 3.6 ± 0.9 h
half-life [3, 7]: 5.8 ± 0.6 h
Cmax [3, 7]: 12000 ± 1700 ng/mL
Cmax [3, 8]: 41000 ± 4500 ng/mL
Tmax [3, 8]: 1.9 ± 0.9 h
half-life [3, 8]: 8.5 ± 1.2 h
Cmax [3, 9]: 42000 ± 7700 ng/mL
Tmax [3, 9]: 2.6 ± 1.3 h
half-life [3, 9]: 2.1 ± 0.2 h
AUCplasma 0–4 h [3, 10]: 38 ± 5.7 µg·mL/h
AUCplasma 0–24 h [3, 10]: 180 ± 24 µg·mL/h
AUCplasma 0–∞ [3, 10]: 190 ± 23 µg·mL/h
CL/F (apparent clearance after oral administration) [3, 10]: 0.05 ± 0.006 L·kg/h
AUCplasma 0–4 h ([3]; WT mice, 25 mg·kg^−1 p.o.): 147 ± 28 µg·mL/h
AUCplasma 0–24 h ([3]; WT mice, 25 mg·kg^−1 p.o.): 390 ± 98 µg·mL/h
AUCplasma 0–∞ ([3]; WT mice, 25 mg·kg^−1 p.o.): 390 ± 99 µg·mL/h
CL/F (apparent clearance after oral administration) ([3]; WT mice, 25 mg·kg^−1 p.o.): 0.07 ± 0.017 L·kg/h
